In patent publication US20240368120A1 (Terns Pharmaceuticals, Inc., priority 2023, published 2024):

Target: T1, human GLP-1R receptor (Homo sapiens, UniProt P43220)
T1 construct: expressed in transfected cells
Experiment: GLP-1R low expression cell assay (cAMP TR-FRET, CHO-K1_hGLP-1Rlow_clone10 cells)
Format: cell-based
Details: for EC50: cAMP TR-FRET, 30 min at 25° C.; for Emax: maximum activation relative to control GLP-1 peptide agonist
Procedure: Stable cell lines expressing high and low GLP-1R surface expression were generated in CHO-K1 cells transfected (Fugene 6) with a puromycin selectable DNA plasmid encoding human GLP-1R receptor (accession number: NM_002062.5) under control of an EF1A promoter. Transfected cells were seeded into 24-well plates (9,000 cells/well) containing complete medium and incubated in a humidified incubator at 37° C. with 5% carbon dioxide. After overnight incubation, medium was replaced with complete medium supplemented with puromycin (6 μg/mL) and refreshed every 2-3 days to select for stably transfected cells. Individual pools of selected cells were expanded prior to analysis for responsiveness to GLP-1 control peptide using a TR-FRET assay to detect cAMP (LANCE Ultra CAMP Assay, Perkin Elmer). Briefly, cells were collected in Versene solution, plated in 384-well plates (1,000 cells/well) and combined with serially diluted GLP-IR control peptide (10 nL) using an acoustic dispenser (ECHO). Plates were incubated for 30 minutes at 25° C. prior to the addition of EU-CAMP tracer (5 μL) and Ulight-anti-CAMP (5 μL) reagents to each well, followed by 15 minutes incubation at 25° C. TR-FRET signal was detected using an En Vision Multimode Plate Reader (excitation=320 nm; emission=615 and 655 nm). Dose-response curves were used to generate EC50 values as a measure of responsiveness to the GLP-IR control peptide. Selected cell lines were monitored for responsiveness over multiple passages to ensure stability. […] Briefly, GLP-IR expression was analyzed by flow cytometry using a fluorescein-labeled Exendin-4 peptide fluorescent probe (FLEX). Cells were harvested in Versene solution and washed 3-times with PBS+0.5% BSA before incubation with FLEX reagent (10 μM) for 2 hours at room temperature. After incubation, cells were washed 3-times in PBS+0.5% BSA before final resuspension in PBS prior to analysis by flow cytometry to measure FLEX mean fluorescence intensity (MFI) as a measure of GLP-IR expression on the cell surface.
For compound testing in the CHO-K1_hGLP-IRlow_clone10 cell line, cells were seeded in 384-well plates (1,000 cells/well). Test compounds were serially diluted in DMSO (10-point, 3-fold dilution), added to wells using an ECHO dispenser (10 nL/well) and plates were centrifuged for 1 min and agitated for 2 min at room temperature prior to 30-minute incubation at 25° C. After incubation, Eu-CAMP (5 μL) and Ulight-anti-cAMP (5 μL) reagents were added to each well, followed by centrifugation for 1 minute, agitation for 2 minutes at room temperature, and final incubation of the plates at 25° C. for 15 minutes. Plates were read using an EnVision microplate reader (excitation=320 nm; emission=615 and 655 nm). Dose-response curves were generated from duplicate wells based on percent activation calculated relative to a control GLP-1 peptide agonist that was run in parallel. EC50 values were determined by fitting percent activation as a function of compound concentration using the Hill equation (XLfit).
The compounds tested were compound samples prepared according to the General Procedures described in the Examples section.

T1 sequence (P43220 24-463): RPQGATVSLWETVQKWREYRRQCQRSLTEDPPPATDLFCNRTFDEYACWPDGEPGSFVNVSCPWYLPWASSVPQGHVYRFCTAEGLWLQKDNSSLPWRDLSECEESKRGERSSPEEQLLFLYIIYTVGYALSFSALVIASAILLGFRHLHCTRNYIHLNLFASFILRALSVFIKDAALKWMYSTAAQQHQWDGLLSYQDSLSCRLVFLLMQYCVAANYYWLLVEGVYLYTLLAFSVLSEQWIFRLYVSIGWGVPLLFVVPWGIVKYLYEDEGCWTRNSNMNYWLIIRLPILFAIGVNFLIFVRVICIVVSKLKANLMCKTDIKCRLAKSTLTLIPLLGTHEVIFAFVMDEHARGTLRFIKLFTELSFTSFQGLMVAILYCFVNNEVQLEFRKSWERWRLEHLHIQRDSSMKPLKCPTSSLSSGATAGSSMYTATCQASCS

| Compound | EC50 [nM] | Emax [%] |
| --- | --- | --- |
| C[C@]1(c2ccc(Cl)cn2)Oc2cccc(C3CCN(Cc4nc5c6c(c(C(=O)O)cc5n4C[C@@H]4CCO4)OCCO6)CC3)c2O1 [Compound 93, 2-((4-((S)-2-(5-Chloropyridin-2-yl)-2-methylbenzo[d][1,3]dioxol-4-yl)piperidin-1-yl)methyl)-3-(((S)-oxetan-2-yl)methyl)-7,8-dihydro-3H-[1,4]dioxino[2′,3′:3,4]benzo[1,2-d]imidazole-5-carboxylic acid] | < 10 | > 85 |
| C[C@H](c1nc2c(OC(F)F)cc(C(=O)O)cc2n1C)N1CCC(c2cccc(OCc3ccc(C#N)cc3F)n2)CC1 [Compound 122, (R)-2-(1-(4-(6-((4-Cyano-2-fluorobenzyl)oxy)pyridin-2-yl)piperidin-1-yl)ethyl)-4-(difluoromethoxy)-1-methyl-1H-benzo[d]imidazole-6-carboxylic acid] | > 1000 | > 85 |
| COc1cc(C(=O)O)nc2c1nc(CN1CCC(c3cccc(OCc4ccc(C#N)cc4F)n3)CC1)n2C [Compound 323, 2-((4-(6-((4-Cyano-2-fluorobenzyl)oxy)pyridin-2-yl)piperidin-1-yl)methyl)-7-methoxy-3-methyl-3H-imidazo[4,5-b] pyridine-5-carboxylic acid] | 10 to 100 | > 85 |
| COc1cc(C(=O)O)cc2c1nc(Cc1cc(F)c(-c3cccc(OCc4ccc(Cl)cc4F)n3)cc1F)n2C [Compound 282, 2-(4-(6-((4-Chloro-2-fluorobenzyl)oxy)pyridin-2-yl)-2,5-difluorobenzyl)-4-methoxy-1-methyl-1H-benzo[d]imidazole-6-carboxylic acid] | < 10 | > 85 |
| [2H]C([2H])(Oc1cccc(C2CCN(C([2H])([2H])c3nc4c(OC(F)F)cc(C(=O)O)cc4n3C)CC2)n1)c1ccc(Cl)cc1F [Compound 321, 2-((4-(6-((4-Chloro-2-fluorophenyl)methoxy-d2)pyridin-2-yl)piperidin-1-yl)methyl-d2)-4-(difluoromethoxy)-1-methyl-1H-benzo[d]imidazole-6-carboxylic acid] | 10 to 100 | > 85 |
| COc1c(OCc2ccc(C#N)cc2F)cccc1C1CCN(Cc2nc3c(OC(F)F)cc(C(=O)O)cc3n2C)CC1 [Compound 144, 2-((4-(3-((4-Cyano-2-fluorobenzyl)oxy)-2-methoxyphenyl)piperidin-1-yl)methyl)-4-(difluoromethoxy)-1-methyl-1H-benzo[d]imidazole-6-carboxylic acid] | > 1000 | < 25 |
| CC(F)(F)c1cc(C(=O)O)cc2c1nc(CN1CCC(c3cccc4c3O[C@@](C)(c3ccc(Cl)cn3)O4)CC1)n2C[C@@H]1CCO1 [Compound 57, 2-((4-((S)-2-(5-Chloropyridin-2-yl)-2-methylbenzo[d][1,3]dioxol-4-yl)piperidin-1-yl)methyl)-4-(1,1-difluoroethyl)-1-(((S)-oxetan-2-yl)methyl)-1H-benzo[d]imidazole-6-carboxylic acid] | < 10 |  |
| Cn1c(CN2CCC(c3cccc(OCc4ccc(Cl)cc4F)n3)CC2)nc2c(OC(F)F)cc(-c3cc(O)no3)cc21 [Compound 316, 5-(2-((4-(6-((4-Chloro-2-fluorobenzyl)oxy)pyridin-2-yl)piperidin-1-yl)methyl)-4-(difluoromethoxy)-1-methyl-1H-benzo[d]imidazol-6-yl) isoxazol-3-ol] | 100 to 1000 | 50 to 85 |
| COc1cc(-c2cc(=O)[nH]o2)cc2c1nc(CN1CCC(c3cccc(OCc4ccc(Cl)cc4F)n3)CC1)n2C[C@@H]1CCO1 [Compound 382, (S)-5-(2-((4-(6-((4-Chloro-2-fluorobenzyl)oxy)pyridin-2-yl)piperidin-1-yl)methyl)-4-methoxy-1-(oxetan-2-ylmethyl)-1H-benzo[d]imidazol-6-yl) isoxazol-3 (2H)-one] | < 10 | 50 to 85 |
| Cn1c(CN2CCC(c3cccc4c3O[C@H](c3ccc(Cl)cc3F)CO4)CC2)nc2c(OCCF)cc(C(=O)O)cc21 [Compound 333, (R)-2-((4-(3-(4-chloro-2-fluorophenyl)-2,3-dihydrobenzo[b][1,4]dioxin-5-yl)piperidin-1-yl)methyl)-4-(2-fluoroethoxy)-1-methyl-1H-benzo[d]imidazole-6-carboxylic acid] | 100 to 1000 | > 85 |
| COc1cc(F)ccc1COc1cccc(C2CCN(Cc3nc4c(OC(F)F)cc(C(=O)O)cc4n3C)CC2)n1 [Compound 231, 4-(Difluoromethoxy)-2-((4-(6-((4-fluoro-2-methoxybenzyl)oxy)pyridin-2-yl)piperidin-1-yl)methyl)-1-methyl-1H-benzo[d]imidazole-6-carboxylic acid] | 10 to 100 | > 85 |
| O=C(O)c1cc(OC(F)F)c2nc(CN3CCC(c4cccc(OCc5ccc(Cl)cc5F)n4)CC3)n(CF)c2c1 [Compound 208, 2-((4-(6-((4-Chloro-2-fluorobenzyl)oxy)pyridin-2-yl)piperidin-1-yl)methyl)-4-(difluoromethoxy)-1-(fluoromethyl)-1H-benzo[d]imidazole-6-carboxylic acid] | 10 to 100 | > 85 |
| CCOc1cc(C(=O)O)cc2c1nc(CN1CCC(Oc3cccc(COc4ccc(C#N)cc4F)n3)CC1)n2C [Compound 290, 2-((4-((6-((4-Cyano-2-fluorophenoxy)methyl)pyridin-2-yl)oxy)piperidin-1-yl)methyl)-4-ethoxy-1-methyl-1H-benzo[d]imidazole-6-carboxylic acid] | < 10 | > 85 |
| N#Cc1ccc(COc2cccc(C3CCN(Cc4nc5ccc(C(=O)O)c6c5n4CCO6)CC3)n2)c(F)c1 [Compound 104, 2-((4-(6-((4-Cyano-2-fluorobenzyl)oxy)pyridin-2-yl)piperidin-1-yl)methyl)-3,4-dihydro-5-oxa-1,2a-diazaacenaphthylene-6-carboxylic acid] | 100 to 1000 | > 85 |
| Cn1c(CN2CCC(c3nccc(OCc4ccc(C#N)cc4F)n3)CC2)nc2c(OC(F)F)cc(C(=O)O)cc21 [Compound 184, 2-((4-(4-((4-Cyano-2-fluorobenzyl)oxy)pyrimidin-2-yl)piperidin-1-yl)methyl)-4-(difluoromethoxy)-1-methyl-1H-benzo[d]imidazole-6-carboxylic acid] | 100 to 1000 | > 85 |
| N#Cc1ccc(COc2cccc(C3CCN(Cc4nc5c(O)cc(C(=O)O)cc5n4Cc4cncs4)CC3)n2)c(F)c1 [Compound 82, 2-((4-(6-((4-Cyano-2-fluorobenzyl)oxy)pyridin-2-yl)piperidin-1-yl)methyl)-4-hydroxy-1-(thiazol-5-ylmethyl)-1H-benzo[d]imidazole-6-carboxylic acid] | < 10 | > 85 |
| CC(=O)Oc1cc(C(=O)O)cc2c1nc(CN1CCC(c3cccc(OCc4ccc(C#N)cc4F)n3)CC1)n2C [Compound 128, 4-Acetoxy-2-((4-(6-((4-cyano-2-fluorobenzyl)oxy)pyridin-2-yl)piperidin-1-yl)methyl)-1-methyl-1H-benzo[d]imidazole-6-carboxylic acid] | 10 to 100 | > 85 |
| O=C(O)c1ccc2nc(CN3CCC(c4cccc(OCc5ccc(Cl)cc5F)n4)CC3)[nH]c2c1O [Compound 204, 2-((4-(6-((4-Chloro-2-fluorobenzyl)oxy)pyridin-2-yl)piperidin-1-yl)methyl)-7-hydroxy-1H-benzo[d]imidazole-6-carboxylic acid] | > 1000 | > 85 |
